Like-named read-outs stand apart in the source and are kept apart here.
Key:
Assay type in all cases: cell-based
[1] = system: WSU-DLCL-2 cells (diffuse large B cell lymphoma cells); experiment: CTG cell proliferation, WSU-DLCL-2; details: Homo sapiens, WSUDLCL2; Table 2 batch; CellTiter-Glo, 72-120 hours; read-out: IC50 value for WSU-DLCL2 Inhibition
Excerpt: (§1) Efficacy Example 2: CTG Cell Proliferation Experimental Method
(§2) MM.1S cells (myeloma cells) (ATCC, catalog number CRL-2974), DOHH2 cells (mantle cell lymphoma cells) (DSMZ, catalog number ACC-47), NCI-H929 cells (myeloma cells) (ATCC, catalog number CRL-9068), or WSU-DLCL-2 cells (diffuse large B cell lymphoma cells) (DSMZ, catalog number ACC-575), Namalwa.CSN/70 cells (non-Hodgkin's lymphoma cells (DSMZ, catalog number ACC-70) was inoculated as (1.8-15)×10^3 per well in white wall, transparent bottom 96-well plate containing specific media (Corning, catalog number CLS3903), which was cultured in 37° C., 5% CO2 incubator for 24 hours. Compounds were formulated in DMSO (Sigma, Cat. No. 276855) as 150 mM stock, which was diluted to the required concentration (DMSO final concentration is 0.2%) in culture medium and added to each well, 2 wells/concentration. The plate was incubated in 37° C., 5% CO2 incubator for 72-120 hours. Afterwards, 100 μl of CellTiter-Glo® cell activity assay reagent (Promega, Cat. No. G7570) was added to each well, which was mixed on a plate shaker for 10 minutes to induce cell lysis. The 96-well plate was allowed to stand at room temperature for 10 minutes to stabilize the luminescence signal. A white base film was pasted on the bottom of the plate and the EnSpire was used to read the plate. Data processing was performed with XLfit software to obtain IC50 values.

[2] = system: DOHH2 cells (mantle cell lymphoma cells); experiment: CTG cell proliferation, DOHH2; details: Homo sapiens, DOHH-2; Table 2 batch; CellTiter-Glo, 72-120 hours; read-out: IC50 value for DOHH2 Inhibition
Excerpt: as §1, §2

[3] = system: MM.1S cells (myeloma cells); experiment: CTG cell proliferation, MM.1S; details: Homo sapiens, MM1.S, CellTiter-Glo, 72-120 hours, read-out: IC50 value for MM.1S Inhibition
Excerpt: as §1, §2

TNF-α = TNF-α activity inhibition assay (LPS-stimulated hPBMC, TNF-α ELISA); details: Homo sapiens, 18 h
Procedure: Efficacy Example 1: TNF-α Activity Inhibition Assay
Heat Inactivated FBS: Invitrogen, Cat #10100147
DMSO: Dimethyl sulphoxide, Sigma, Cat #D8418
CTL-Anti-Aggregate Wash 20×: CTL, Cat #CTL-AA-005
Human TNF ELISA Set: BD, Cat #555212
PBMC Recovery and Cell Plating Steps
1) Agitation was performed continuously in a 37° C. water bath to rapidly thaw cells.
2) The cells were gently added to a 15 ml centrifuge tube, to which was then added 10 ml of fresh, prewarmed recovery medium gently and then centrifugation was performed at 1000 rpm for 10 min.
3) The supernatant medium was discarded and resuspension was performed with 10 ml of fresh, prewarmed RPMI 1640 complete medium.
1) The total number of cells needed for the experiment was calculated and adjusted to the appropriate cell concentration per ml. 100 ul and 10^5 cells per well.
2) The cell suspension was diluted with appropriate volume of cell culture medium.
3) The cell suspension was added to a disposable sterile sample well.
4) 100 ul of cell suspension was added to each well of a 96-well plate.
5) The plate was incubated in a 37° C., 5% CO2 incubator for 2 hours.
Compound Preparation Step
1. LPS: The 1 mg/mL stock solution was diluted with water, aliquoted, and stored at −80° C. Prior to each test, the working solution of LPS was diluted from the stock solution with serum-free RPMI 1640 medium.
20 mM stock solution was dissolved in DMSO and the compound was checked for solubility, aliquoted, and stored at −80° C.
8× compound gradient preparation: […]
A series of compound concentration gradient was diluted with DMSO: 10 mM, 2 mM, 0.4 mM, 80 uM, 16 uM, 3.2 uM, 0.64 uM, 0.128 uM were obtained and then the compounds were diluted 125-fold with serum-free RPMI 1640 medium to the final 8×. The final concentration of DMSO in cell culture was 0.1%.
Compound Processing Experimental Procedures and Collection of Supernatants
1. Cell Plating: Fresh cells were plated in 96-well cell culture plates according to the procedure above, 100 ul and 10^5 cells per well, and then incubated in a 37° C., 5% CO2 incubator for 2 hours.
2. Compound Preparation: Before test, compounds were added to the plates according to the above description. A dose of compound in 8× concentration was prepared with serum-free RPMI 1640 medium and all gradients of solution were added to the compound plate.
3. Compound addition: 16.7 ul of compound solution in working concentration was added to each well of the cell culture plate. The plate was incubated in a 37° C., 5% CO2 incubator for 1 hour.
4. 16.7 ul of 8×LPS per well (final concentration of LPS is EC80, the amount of each PBMC needed to be determined) was added. The plate was incubated for 18 hours in 37° C., 5% CO2 incubator.
5. 80 ul of supernatant per well was collected and then subjected to TNF-α ELISA assay. The collected supernatant can be stored at −80° C. The supernatant needed to be diluted in various ratios to ensure that the experimental dose would not exceed the linear range of the TNF-α standard curve, depending on the amount of TNF-α released in different donors. Typically, 20-100 ul of supernatant was diluted to 200 ul and then used for ELISA experiments.
The TNF-α ELISA test procedure were referred to the BD human TNF-α ELISA kit experimental procedure.
Four compounds per plate. 5-fold dilution was performed, starting from 10 uM, by 8 gradients, and parallel wells were made. A total of 16 compounds were tested.
The TNF-α standard was added to each plate. (1st well, starting from 500 pg/ml, 2-fold dilution, 7 gradients)
ZPE (0% inhibition) used 15 pg/ml LPS+0.1% DMSO, while HPE (100% inhibition) used only 0.1% DMSO.
The inhibition rate statistics were calculated. The inhibition rate (%)=[1−[…]]*100%. IC50 was used to evaluate the concentration of the test compound (nM) at 50% inhibition.

[4] = system: NCI-H929 cells (myeloma cells); experiment: CTG cell proliferation, NCI-H929; details: Homo sapiens, Table 2 batch, CellTiter-Glo, 72-120 hours, read-out: IC50 value for NCI-H929 Inhibition
Excerpt: as §1, §2

[5] = system: Namalwa.CSN/70 cells (non-Hodgkin's lymphoma cells); experiment: CTG cell proliferation, Namalwa.CSN/70; details: Table 2 batch; CellTiter-Glo, 72-120 hours; read-out: IC50 value for Namalwa. CSN/70 Inhibition
Excerpt: as §1, §2

Structure (SMILES) | IC50 (TNF-α; Table 1-1 experiment) [nM] | IC50 ([3]; Table 3 batch) [nM] | further results
Nc1cccc2c1CN(C1CCC(=O)NC1=O)C2=O (stereo not shown) [Compound B001] | 99.1 |  | IC50 [1]: > 300000 nM; IC50 [2]: > 300000 nM; IC50 ([3]; Table 2 batch): 362 nM; IC50 (TNF-α; Table 1 experiment): 192 nM; IC50 [4]: 1000 nM; IC50 [5]: > 300000 nM
Cc1nc2cccc(N)c2c(=O)n1C1CCC(=O)NC1=O (stereo not shown) [Compound K001, reference compound] | 32.8 | 37.5 | IC50 [1]: 469 nM; IC50 [2]: 459 nM; IC50 ([3]; Table 2 batch): 49.8 nM; IC50 ([3]; Table 4 batch): 275 nM; IC50 (TNF-α; Table 1 experiment): 32.5 nM; IC50 [4]: 86.1 nM; IC50 [5]: 65.8 nM
Cc1nc2cc(F)cc(N)c2c(=O)n1C1CCC(=O)NC1=O (stereo not shown) [Compound K101] | 10.2 |  | IC50 [1]: 179 nM; IC50 [2]: 125 nM; IC50 ([3]; Table 2 batch): 13.3 nM; IC50 (TNF-α; Table 1 experiment): 27.8 nM; IC50 [4]: 30.4 nM; IC50 [5]: 6.8 nM
Cc1nc2cc(F)cc(N)c2c(=O)n1[C@H]1CCC(=O)NC1=O [Compound K102] | 7.3 |  | IC50 ([3]; Table 4 batch): 104 nM
Cc1nc2cc(F)cc(N)c2c(=O)n1[C@@H]1CCC(=O)NC1=O [Compound K103] | 283 |  | IC50 ([3]; Table 4 batch): 465 nM
[2H]C1(n2c(C)nc3cc(F)cc(N)c3c2=O)CCC(=O)NC1=O (stereo not shown) [Compound K104] |  |  | IC50 ([3]; Table 4 batch): 192 nM
[2H][C@]1(n2c(C)nc3cc(F)cc(N)c3c2=O)CCC(=O)NC1=O [Compound K105] | 6.4 |  | IC50 ([3]; Table 4 batch): 33 nM
[2H][C@@]1(n2c(C)nc3cc(F)cc(N)c3c2=O)CCC(=O)NC1=O [Compound K106] | 781 |  | IC50 ([3]; Table 4 batch): 504 nM
Cc1nc2cc(Cl)cc(N)c2c(=O)n1C1CCC(=O)NC1=O (stereo not shown) [Compound K401] | 10.2 | 22 | 
Cc1nc2cc(Br)cc(N)c2c(=O)n1C1CCC(=O)NC1=O (stereo not shown) [Compound K501] | 9.6 | 26.7 | 
CNc1cc(F)cc2nc(C)n(C3CCC(=O)NC3=O)c(=O)c12 (stereo not shown) [Compound K613] | 9.4 |  | 
Cc1nc2cc(F)cc(NC(C)C)c2c(=O)n1C1CCC(=O)NC1=O (stereo not shown) [Compound K617] | 153 |  | 

Continued, in another order:

IC50 (TNF-α; Table 1-1 experiment) [nM] | IC50 ([3]; Table 3 batch) [nM] | Structure (SMILES) | further results
 | 5930 | COc1cc(F)cc2nc(C)n(C3CCC(=O)NC3=O)c(=O)c12 (stereo not shown) [Compound K627] | 
 | 956 | Cc1nc2cc(F)cc(O)c2c(=O)n1C1CCC(=O)NC1=O (stereo not shown) [Compound K631] | 
392 | 314 | CC(=O)Nc1cc(F)cc2nc(C)n(C3CCC(=O)NC3=O)c(=O)c12 (stereo not shown) [Compound K633] | 
 | 2810 | Cc1nc2cc(F)cc(NC(=O)C(C)C)c2c(=O)n1C1CCC(=O)NC1=O (stereo not shown) [Compound K635] | 
 | 507 | Cc1nc2cc(O)cc(N)c2c(=O)n1C1CCC(=O)NC1=O (stereo not shown) [Compound K700] | 
466 |  | Cc1nc2cc(OCc3ccccc3)cc(N)c2c(=O)n1C1CCC(=O)NC1=O (stereo not shown) [Compound K704] | 
319 |  | Cc1nc2cc(OCc3ccc(CN4CCOCC4)cc3F)cc(N)c2c(=O)n1C1CCC(=O)NC1=O (stereo not shown) [Compound K706] | 
138 |  | Cc1cc(N)c2c(=O)n(C3CCC(=O)NC3=O)c(C)nc2c1 (stereo not shown) [Compound K720] | 
5.9 |  | Cc1nc2cc(C#N)cc(N)c2c(=O)n1C1CCC(=O)NC1=O (stereo not shown) [Compound K724] | 
2800 | 2400 | Cc1nc2cc(F)ccc2c(=O)n1C1CCC(=O)NC1=O (stereo not shown) [Reference 1, reference compound] | 
 | > 300000 | Cc1nc2c(F)ccc(N)c2c(=O)n1C1CCC(=O)NC1=O (stereo not shown) [Reference 2, reference compound] | 
 | 1170 | Cc1nc2ccc(F)c(N)c2c(=O)n1C1CCC(=O)NC1=O (stereo not shown) [Reference 3, reference compound] | 

Source: patent publication US11702399B2, “Quinazolinone derivative, preparation method therefor, pharmaceutical composition, and applications” (KANGPU BIOPHARMACEUTICALS, LTD., priority 2016, dated 2023)
